Measurements: ChEMBL document CHEMBL3112516, “Design, synthesis and biological evaluation of novel peptide MC62 analogues as potential antihyperglycemic agents” (2014)
The source made the active and inactive calls. The rule behind the calls is not given here.

How the values were obtained:
Mus musculus [1] = experiment: Antihyperglycemic activity in overnight fasted STZ-induced diabetic mouse model assessed as blood glucose level at 1 umol/kg, ip qd administered for 20 days measured after 20 days relative to control; format: functional
Mus musculus [2] = experiment: Antihyperglycemic activity in STZ-induced mouse model assessed as decrease in water intake at 1 umol/kg, ip administered for 20 days measured every 5 days up to 20 days; format: functional, organism-based
Mus musculus [3] = experiment: Antihyperglycemic activity in overnight fasted STZ-induced mouse model assessed as decrease in glycated hemoglobin level at 1 umol/kg, ip administered for 20 days measured on day 21; format: functional, organism-based
Mus musculus [4] = experiment: Antihyperglycemic activity in mouse assessed as decrease in blood glucose level at 1 umol/kg, ip pretreated with compound followed by glucose challenge measured after 30 to 60 mins by oral glucose tolerance test; format: functional, organism-based
Mus musculus [5] = experiment: Antioxidant activity in STZ-induced mouse model assessed as SOD level at 1 umol/kg, ip administered for 20 days measured on day 21 (reference value: 41.58 +/- 2.89 U/ml); format: functional
Mus musculus [6] = experiment: Antioxidant activity in STZ-induced mouse model assessed as GSH level at 1 umol/kg, ip administered for 20 days measured on day 21 (reference value: 8.13 +/- 0.13 mg/ml); format: functional
Mus musculus [7] = experiment: Antihyperglycemic activity in STZ-induced mouse model assessed as decrease in food intake at 1 umol/kg, ip administered for 20 days measured every 5 days up to 20 days; format: functional, organism-based
MIN6 [8] = experiment: Inhibition of H202-induced apoptosis in mouse MIN6 cells assessed as change in nuclear fragmentation at 10 nM preincubated for 24 hrs followed by H202 challenge measured after 1 hr by Hoechst 33342 staining-based microscopic analysis; format: functional, cell-based
Mus musculus [9] = experiment: Antioxidant activity in STZ-induced mouse model assessed as MDA level at 1 umol/kg, ip administered for 20 days measured on day 21 (reference value: 12.49 +/- 1.35 nmol/ml); format: functional
Mus musculus [10] = experiment: Antioxidant activity in STZ-induced mouse model assessed as GSH-PX level at 1 umol/kg, ip administered for 20 days measured on day 21 (reference value: 1449.23 +/- 49.42 U/ml); format: functional
Mus musculus [11] = experiment: Antihyperglycemic activity in overnight fasted STZ-induced mouse model assessed as reduction of fasting blood glucose level at 1 umol/kg, ip administered for 20 days measured every 5 days up to 20 days; format: functional, organism-based
Mus musculus [12] = experiment: Antihyperglycemic activity in STZ-induced mouse model assessed as decrease in body weight at 1 umol/kg, ip administered for 20 days measured every 5 days up to 20 days; format: functional, organism-based
Mus musculus [13] = experiment: Antihyperglycemic activity in STZ-induced mouse model assessed as increase in islet number at 1 umol/kg, ip by hematoxylin and eosin staining technique; format: functional, organism-based
MIN6 [14] = experiment: Inhibition of palmitate-induced apoptosis in mouse MIN6 cells assessed as reduction of apoptotic cells at 10 nM preincubated for 24 hrs followed by palmitate challenge measured after 1 hr by Hoechst 33342 staining-based microscopic analysis; format: functional, cell-based

H-KTNMGHMAGAA-OH
Activity (Mus musculus [1]): 18.52 mmol/L

H-KTNMKGMAGAA-OH
Activity (Mus musculus [1]): 13.29 mmol/L

H-KTNMKGMAGMA-OH
Activity (Mus musculus [1]): 17.38 mmol/L

H-KTNMKHGAGAA-OH
Activity (Mus musculus [1]): 21.82 mmol/L

H-KTNMKGMAGAM-OH
Activity (Mus musculus [1]): 20.18 mmol/L

H-KTNMKHMGGAA-OH
Activity (Mus musculus [1]): 18.02 mmol/L

H-KGNMKHMAGAA-OH
Activity (Mus musculus [1]): 15.28 mmol/L

H-KTMMKGMAGAA-OH
Activity (Mus musculus [2]): Active
Activity (Mus musculus [1]): 11.8 mmol/L
Activity (Mus musculus [3]): Active
Activity (Mus musculus [4]): Active
Activity (Mus musculus [5]): 46.96 U/ml
Activity (Mus musculus [6]): 12.14 mg/mL
Activity (Mus musculus [7]): Active
Activity (MIN6 [8]): Active
Activity (Mus musculus [9]): 7.61 nmol/mL
Activity (Mus musculus [10]): 1707.69 U/ml
Activity (Mus musculus [11]): Active
Activity (Mus musculus [12]): Active
Activity (Mus musculus [13]): Active
Activity (MIN6 [14]): Active

H-MTNMKGMAGAA-OH
Activity (Mus musculus [1]): 20.83 mmol/L

H-KTGMKHMAGAA-OH
Activity (Mus musculus [1]): 14.36 mmol/L

H-KTNGKHMAGAA-OH
Activity (Mus musculus [1]): 18.34 mmol/L

H-KMNMKGMAGAA-OH
Activity (Mus musculus [1]): 13.44 mmol/L

H-GTNMKHMAGAA-OH
Activity (Mus musculus [1]): 15.26 mmol/L

H-KTNMKHMAGAA-OH
Activity (Mus musculus [1]): 16.16 mmol/L

H-KTNMKGMAMAA-OH
Activity (Mus musculus [1]): 14.03 mmol/L
